Laboratory results reported in patent publication US20230123334A1, “AMINO LIPID COMPOUND, PREPARATION METHOD THEREFOR, AND APPLICATION THEREOF” (SHENZHEN SHENXIN BIOTECHNOLOGY CO., LTD., priority 2020, published 2023).

System: HEK293 cells
Experiment: Preliminary screening as DNA vectors, GFP transfection of HEK293 cells
Type: cell-based
Settings: amino lipid/DOPE liposome with 75 ng plasmid DNA (psin-EGFP-IRES-Puro); number of GFP-expressing cells divided by total nuclei (Hoechst)
How it was run: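 Lipid + DOPE liposomes (NaOAc, pH 5.6) complexed w/ 75 ng psin-EGFP-IRES-Puro, 30 min RT; added to 3-5×10^4 HEK293/well, 37° C. Hoechst 0.2 μg/mL at 20-24 h, imaged after further 20-24 h. Efficiency = GFP+ cells / total nuclei.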

| Structure (SMILES) | Absolute DNA transfection efficiency in HEK293 cells [%] |
| --- | --- |
| CCCCCCCCCCCCCCCCCCNc1nc(NCCCN(C)C)nc(SCCCCCCCCCCCCCCC)n1 [S15N18 D6] | 0.3 |
| CCCCCCCCCCCCCCCSc1nc(NCCCCCCC)nc(NCCCN(C)C)n1 [S15N7 D6] | 32.1 |
| CCCCCCCCCCCCCCCNc1nc(NCCCN2CCN(C)CC2)nc(SCCCCCCCCCCC)n1 [S11N15 D9] | 7.0 |
| CCCCCCCCCCCCNc1nc(NCC2CCN(C)CC2)nc(SCCCCCCCC)n1 [S8N12 D10] | 44.5 |
| CCCCCCCCCSc1nc(NCCN2CCCC2)nc(SCCCCCC)n1 [S6S9 D3] | 6.9 |
| CCCCCCCCCCCCCCCCCCSc1nc(NCCCCCC)nc(NCCCN(C)C)n1 [S18N6 D6] | 14.5 |
| CCCCCCCCCCCCSc1nc(NCCCCCCC)nc(NCCN2CCN(C)CC2)n1 [S12N7 D5] | 3.6 |
| CCCCCCCCCCCCCCSc1nc(NCCCCCCC)nc(NCC2CCN(C)CC2)n1 [S14N7 D10] | 34.6 |
| CCCCCCCCCCCCCCCCCCSc1nc(NCCCCCCCCC)nc(NCCN2CCCC2)n1 [S18N9 D3] | 20.4 |
| CCCCCCCCNc1nc(NCCN2CCCC2)nc(SCCCCCCCC)n1 [S8N8 D3] | 8.5 |
| CCCCCCCCCCCCCCCCSc1nc(NCCN2CCCC2)nc(SCCCCCCC)n1 [S7S16 D3] | 6.3 |
| CCCCCCCCCCCCCCCSc1nc(NCCN2CCCC2)nc(N(CCCCCCCCCCCC)CCCCCCCCCCCC)n1 [S15^2N12 D3] | 0.1 |
| CCCCCCCCCCCCCCCCCCNc1nc(NCCN2CCN(C)CC2)nc(SCCCCCCCC)n1 [S8N18 D5] | 8.6 |
| CCCCCCCCCCCCCCSc1nc(NCCCCCCCCCCCCC)nc(NCCN(C)C)n1 [S14N13 D1] | 1.1 |
| CCCCCCCCCCCCCCCCNc1nc(NCCN(CC)CC)nc(SCCCCCCCCCCCCCCCC)n1 [S16N16 D7] | 0.2 |
| CCCCCCCCCCCCCCCCSc1nc(NCCCCCCCCCCCCC)nc(NCCN(CC)CC)n1 [S16N13 D7] | 3.7 |
| CCCCCCCCCCCCCCSc1nc(NCCCCCCCCC)nc(NCCCN2CCN(C)CC2)n1 [S14N9 D9] | 16.7 |
| CCCCCCCCCCCCCCCCCCNc1nc(NCCN2CCCC2)nc(SCCCCCCCC)n1 [S8N18 D3] | 6.7 |
| CCCCCCCCCCCCCCCCCCSc1nc(NCCCCCCCCCCCCCCCC)nc(NCCN2CCCC2)n1 [S18N16 D3] | 0.1 |
| CCCCCCCCCCCCCCCCNc1nc(NCCN2CCCCC2)nc(SCCCCCC)n1 [S6N16 D4] | 2.4 |
| CCCCCCCCCCCCCCCSc1nc(NCCCCCCC)nc(NCCCN2CCN(C)CC2)n1 [S15N7 D9] | 17.1 |
| CCCCCCCCCSc1nc(NCCCCCC)nc(NCCN2CCN(C)CC2)n1 [S9N6 D5] | 22.4 |
| CCCCCCCCCCCCCCCNc1nc(NCCCN2CCN(C)CC2)nc(SCCCCCCCCCCCCCC)n1 [S14N15 D9] | 0.7 |
| CCCCCCCCCCCSc1nc(NCCCCCCCCC)nc(NCC2CCN(C)CC2)n1 [S11N9 D10] | 32.5 |

| Structure (SMILES) | Absolute DNA transfection efficiency in HEK293 cells [%] |
| --- | --- |
| CCCCCCCCCCCCCCCCCCNc1nc(NCCN(CC)CC)nc(SCCCCCCCCCCCCCCCCCC)n1 [S18N18 D7] | 0.0 |
| CCCCCCCCCCCCCCCNc1nc(NCCN2CCOCC2)nc(SCCCCCCCCCCC)n1 [S11N15 D2] | 1.3 |
| CCCCCCCCCCCSc1nc(NCCCCCC)nc(NCCN(C)C)n1 [S11N6 D1] | 33.1 |
| CCCCCCCCCSc1nc(NCCCN(C)C)nc(SCCCCCCC)n1 [S7S9 D6] | 3.4 |
| CCCCCCCCCCCCSc1nc(NCCCN(C)C)nc(SCCCCCC)n1 [S6S12 D6] | 13.6 |
| CCCCCCCCCCCCCCCCSc1nc(NCCCCCCCCCCCCC)nc(NCCN2CCCCC2)n1 [S16N13 D4] | 0.0 |
| CCCCCCCCCCCCCCSc1nc(NCCCCCCC)nc(NCCN2CCCCC2)n1 [S14N7 D4] | 3.7 |
| CCCCCCCCCCCCCNc1nc(NCCCN(C)C)nc(SCCCCCCCCCCCC)n1 [S12N13 D6] | 7.0 |
| CCCCCCCCCCCCCCCCNc1nc(NCCN2CCN(C)CC2)nc(SCCCCCCCCCCCCCCC)n1 [S15N16 D5] | 0.2 |
| CCCCCCCCCCCSc1nc(NCCN2CCCCC2)nc(SCCCCCC)n1 [S6S11 D4] | 6.2 |
| CCCCCCCCCCCCSc1nc(NCCN2CCCCC2)nc(N(CCCCCCCCCCCC)CCCCCCCCCCCC)n1 [S12^2N12 D4] | 0.0 |
| CCCCCCCCCCCCCCCCSc1nc(NCCN(CC)CC)nc(N(CCCCCCCCCCCC)CCCCCCCCCCCC)n1 [S16^2N12 D7] | 0.1 |
| CCCCCCCCCCCCNc1nc(NCCN2CCN(C)CC2)nc(SCCCCCCCCCCCC)n1 [S12N12 D5] | 3.5 |
| CCCCCCCCCCCCNc1nc(NCCCN(C)C)nc(SCCCCCC)n1 [S6N12 D6] | 6.0 |
| CCCCCCCSc1nc(NCCN2CCN(C)CC2)nc(SCCCCCCC)n1 [S7S7 D5] | 4.8 |
| CCCCCCCCCCCCSc1nc(NCCN2CCN(C)CC2)nc(N(CCCCCCCCCCCC)CCCCCCCCCCCC)n1 [S12^2N12 D5] | 0.3 |
| CCCCCCCCCCCCCCCCCCSc1nc(NCCCCCCCC)nc(NCCN2CCCC2)n1 [S18N8 D3] | 9.6 |
| CCCCCCCCCCCCNc1nc(NCCN2CCCCC2)nc(SCCCCCCCCCCCC)n1 [S12N12 D4] | 0.1 |
| CCCCCCCCCCCCNc1nc(NCCCN2CCOCC2)nc(SCCCCCCC)n1 [S7N12 D8] | 17.7 |
| CCCCCCCCCCCCCCSc1nc(NCCCCCCCCCCCC)nc(NCCN2CCCCC2)n1 [S14N12 D4] | 3.8 |
| CCCCCCCCCCSc1nc(NCCN2CCCCC2)nc(SCCCCCC)n1 [S6S10 D4] | 4.5 |
| CCCCCCCCCCCNc1nc(NCCN(C)C)nc(SCCCCCCCC)n1 [S8N11 D1] | 42.2 |
| CCCCCCCSc1nc(NCCCCCC)nc(NCCN(CC)CC)n1 [S7N6 D7] | 11.2 |
| CCCCCCCCCCCCCCCSc1nc(NCCCCCCCCCCCCC)nc(NCCCN2CCOCC2)n1 [S15N13 D8] | 0.2 |

| Structure (SMILES) | Absolute DNA transfection efficiency in HEK293 cells [%] |
| --- | --- |
| CCCCCCCCCCCCCCSc1nc(NCCN2CCN(C)CC2)nc(SCCCCCCC)n1 [S7S14 D5] | 10.7 |
| CCCCCCCCCCCCCCCCCCSc1nc(NCCCCCCCCCCCCCCCC)nc(NCCCN2CCOCC2)n1 [S18N16 D8] | 0.0 |
| CCCCCCCCCCCCCCSc1nc(NCCCN2CCOCC2)nc(SCCCCCC)n1 [S6S14 D8] | 2.3 |
| CCCCCCCCCNc1nc(NCCN(CC)CC)nc(SCCCCCC)n1 [S6N9 D7] | 1.1 |
| CCCCCCCCCCCCCCCCCCSc1nc(NCCCCCCCCCCCCCCC)nc(NCCCN(C)C)n1 [S18N15 D6] | 0.0 |
| CCCCCCCCNc1nc(NCCN2CCOCC2)nc(SCCCCCCCC)n1 [S8N8 D2] | 1.5 |
| CCCCCCCCNc1nc(NCCCN2CCOCC2)nc(SCCCCCCC)n1 [S7N8 D8] | 2.7 |
| CCCCCCCCCCCCSc1nc(NCCCCCCCCCCC)nc(NCCCN2CCN(C)CC2)n1 [S12N11 D9] | 3.9 |
| CCCCCCCCCCCCN(CCCCCCCCCCCC)c1nc(NCCN(C)C)nc(SCCCCCCCC)n1 [S8^2N12 D1] | 0.0 |
| CCCCCCCCCCCCCNc1nc(NCCCN(C)C)nc(SCCCCCC)n1 [S6N13 D6] | 12.9 |
| CCCCCCCCNc1nc(NCCN2CCN(C)CC2)nc(SCCCCCC)n1 [S6N8 D5] | 3.4 |
| CCCCCCCCCCCCCCCCNc1nc(NCCN2CCOCC2)nc(SCCCCCCCCCCC)n1 [S11N16 D2] | 3.5 |
| CCCCCCCCCCCCCNc1nc(NCCCN(C)C)nc(SCCCCCCCCCCC)n1 [S11N13 D6] | 13.6 |
| CCCCCCCCCCCCCCCCNc1nc(NCCN2CCOCC2)nc(SCCCCCCCCCCCCCCCC)n1 [S16N16 D2] | 0.0 |
| CCCCCCCCCCCCSc1nc(NCCCCCCCCCCC)nc(NCCN(C)C)n1 [S12N11 D1] | 3.2 |
| CCCCCCCCCCCSc1nc(NCCN(CC)CC)nc(SCCCCCC)n1 [S6S11 D7] | 10.1 |
| CCCCCCCCSc1nc(NCCN(CC)CC)nc(SCCCCCCC)n1 [S7S8 D7] | 5.8 |
| CCCCCCCCCCCCCCCCCCSc1nc(NCCCCCCCC)nc(NCCN(CC)CC)n1 [S18N8 D7] | 6.7 |
| CCCCCCCCCCCCCCCCNc1nc(NCCN(C)C)nc(SCCCCCCCCCCCCCC)n1 [S14N16 D1] | 0.7 |
| CCCCCCCCCCCNc1nc(NCCCN2CCN(C)CC2)nc(SCCCCCC)n1 [S6N11 D9] | 21.1 |
| CCCCCCCCCCCCSc1nc(NCCCCCCC)nc(NCCCN2CCOCC2)n1 [S12N7 D8] | 0.3 |
| CCCCCCCCCCCCCCCNc1nc(NCCCN(C)C)nc(SCCCCCCC)n1 [S7N15 D6] | 15.9 |
| CCCCCCCCCCCCCCCSc1nc(NCCN2CCN(C)CC2)nc(SCCCCCCC)n1 [S7S15 D5] | 14.9 |
| CCCCCCCCCCCCCCSc1nc(NCCCCCCCCCCCCC)nc(NCCN2CCCCC2)n1 [S14N13 D4] | 3.9 |
